Results: patent US4230617A, “Somatostatin analogues” (American Home Products Corporation, priority 1979, dated 1980)
Where a name gives a salt, the structure may show the parent alone. Positions of bridges follow the written chain, without caps; N, C: chain ends. Non-standard residues stand in square brackets, D forms with d. Residues, ends and D or L forms follow the SMILES beside them.

What was measured:
Assay type in all cases: in vivo, albino male rats
glucagon = experiment: Arginine-stimulated glucagon release in Nembutal-anesthetized rats, blood radioimmunoassay; conditions: rat
Procedure: (§1) The in vivo activity of the polypeptides of this invention was established by subjecting the product of Examples 2 and 3 as representative compounds of the invention, to the following standard test procedure: Two groups of ten albino male rats were arranged to provide a control group and a group for study of the compounds of this invention. Nembutal (50 mg/kg) was injected intraperitoneally into each rat. Fifteen minutes late a subcutaneous injection of the test compound or physiological saline (control) was administered separately to each of the two groups of rats. Ten minutes later 0.5 milliliters of arginine (300 mg/ml., pH 7.2) was injected into the rats heart. The rats were decapitated five minutes later and their blood was collected in Trasylol-EDTA. Aliquot samples were radioimmunoassayed for growth hormone, insulin and glucagon.

growth hormone [1] = experiment: Arginine-stimulated growth hormone release in Nembutal-anesthetized rats, blood radioimmunoassay; conditions: rat, * p < 0.01
Procedure: as §1

growth hormone [2] = experiment: Duration test: same procedure with 2 and 4 hour period before blood sampling, growth hormone radioimmunoassay; conditions: rat, 1,000 ug/kg
Procedure: as §1, with “glucagon. The results of these tests are presented below:” for “glucagon.”
The procedure described in the preceding paragraph was repeated with the exception that a 2 and 4 hour period was allowed to elapse before blood sampling.

insulin = experiment: Arginine-stimulated insulin release in Nembutal-anesthetized rats, blood radioimmunoassay; conditions: rat
Procedure: as §1

[3] = summary statement, for periods up to about four hours
[4] = 2 hours before blood sampling, * p < 0.01
[5] = 4 hours before blood sampling, + p < 0.05

| SMILES | GLUN (glucagon; 50 μg/kg subcutaneous, control 119 ± 8, * p < 0.01) | GLUN (glucagon; 200 μg/kg subcutaneous, control 85 ± 6, * p < 0.01) | glucagon release (result in words) (glucagon; [3]) | GH (growth hormone [1]; 50 μg/kg subcutaneous, control 379 ± 50) | GH (growth hormone [1]; 200 μg/kg subcutaneous, control 202 ± 11) | GH (growth hormone [2]; [4]) | GH (growth hormone [2]; [5]) | INS (insulin; 50 μg/kg subcutaneous, control 137 ± 25) | INS (insulin; 200 μg/kg subcutaneous, control 238 ± 23, + p < 0.05) | insulin release (result in words) (insulin; [3]) | GLUN (glucagon; 100 μg/kg subcutaneous, control 89 ± 14) | GH (growth hormone [1]; 100 μg/kg subcutaneous, control 201 ± 40) | INS (insulin; 100 μg/kg subcutaneous, control 268 ± 21) |
| --- | --- | --- | --- | --- | --- | --- | --- | --- | --- | --- | --- | --- | --- |
| C[C@@H](O)[C@@H]1NC(=O)[C@H](Cc2ccccc2)NC(=O)[C@H]([C@@H](C)O)NC(=O)[C@H](CCCCN)NC(=O)[C@@H](Cc2c[nH]c3ccccc23)NC(=O)[C@H](Cc2c[nH]c3ccccc23)NC(=O)[C@H](Cc2ccccc2)NC(=O)[C@H](Cc2c[nH]cn2)NC(=O)[C@H](CCCNC(=N)N)NC(=O)[C@@H](N)CSSC[C@@H](C(=O)O)NC(=O)[C@H](CO)NC1=O [Example 2, L-Cysteinyl-L-arginyl-L-histidyl-L-phenylalanyl-L-tryptophyl-D-tryptophyl-L-lysyl-L-threonyl-L-phenylalanyl-L-threonyl-L-seryl-L-cysteine cyclic (1-12) disulfide tetraacetate salt] (H-CRHFW[dW]KTFTSC-OH; disulfide 1-12) | 36 ± 8 pg/mL | 20 ± 4 pg/mL | suppress | 104 ± 8 ng/mL | 92 ± 8 ng/mL | 51 ± 9 ng/mL | 60 ± 11 ng/mL | 61 ± 4 μU/ml | 149 ± 23 μU/ml | suppress |  |  |  |
| C[C@@H](O)[C@@H]1NC(=O)[C@H](Cc2ccccc2)NC(=O)[C@H]([C@@H](C)O)NC(=O)[C@H](CCCCN)NC(=O)[C@@H](Cc2c[nH]c3ccccc23)NC(=O)[C@H](Cc2c[nH]cn2)NC(=O)[C@H](Cc2ccccc2)NC(=O)[C@H](Cc2c[nH]cn2)NC(=O)[C@H](CCCNC(=N)N)NC(=O)[C@@H](N)CSSC[C@@H](C(=O)O)NC(=O)[C@H](CO)NC1=O [Example 3, L-Cysteinyl-L-arginyl-L-histidyl-L-phenylalanyl-L-histidyl-D-tryptophyl-L-lysyl-L-threonyl-L-phenylalanyl-L-threonyl-L-seryl-L-cysteine cyclic (1-12) disulfide tetraacetate salt] (H-CRHFH[dW]KTFTSC-OH; disulfide 1-12) |  |  |  |  |  | 181 ± 59 ng/mL | 129 ± 29 ng/mL |  |  |  | 72 ± 13 pg/mL | 48 ± 20 ng/mL | 282 ± 48 μU/ml |
